Usually Cmax stands for the peak of the concentration-time curve.

This is an account of results in article PMC5515969, “Effects of 31 FDA approved small-molecule kinase inhibitors on isolated rat liver mitochondria” (Archives of Toxicology, 2016).

Data set [1] deals with isolated rat liver mitochondria. The following applies: for Cytochrome c release 1XCmax / Cytochrome c release 2.5XCmax / Cytochrome c release 5XCmax / Cytochrome c release 10XCmax / Cytochrome c release 20XCmax / Cytochrome c release 30XCmax / Cytochrome c release 50XCmax / Cytochrome c release 100XCmax: positive control alamethicin treated samples.
On the set-up of data set [2]: method as in product labeling. The following applies: ref product labeling, cited from earlier work; for Labeling for cardiotoxicity: BBW: black box warning, W&P: Warnings and Precautions.
The conditions of data set [3]: cited from earlier work.
For data set [4] the following is noted: ref product labeling, cited from earlier work.
Where [5] appears, read: human therapeutic Cmax at FDA recommended dosages, ref product labeling and drug approval packages at the official FDA website.
Setting [6] is: therapeutic maximal blood concentration, ref product labeling.
Where [7] appears, read: read-out: Cmax at µM, human therapeutic maximal blood concentration, ref product labeling.
Setting [8] is: human therapeutic maximal blood concentration, ref product labeling.
The mark [9] stands for this setting: read-out: Cmax at µM, therapeutic maximal blood concentration, ref product labeling.

Like-named read-outs stand apart in the source and are kept apart here.

Take `CNC(=O)c1ccccc1Sc1ccc2c(/C=C/c3ccccn3)n[nH]c2c1` [Axitinib]: in data set [1], the “Cytochrome c release 1XCmax” value was 0, the “Cytochrome c release 2.5XCmax” value was determined as 0, the “Cytochrome c release 5XCmax” value amounted to 0 and the “Cytochrome c release 10XCmax” value is on record as 0. In data set [1], the “Cytochrome c release 20XCmax” value was determined as 0, the “Cytochrome c release 30XCmax” value is 0, the “Cytochrome c release 50XCmax” value came to 0 and the “Cytochrome c release 100XCmax” value stood at 0. For the same compound, in data set [2], the Labeling for cardiotoxicity entry is on record as “W&P: Cardiac Failure” and the “Potential for cardiotoxicity (based on labeling)” value (shortened to “Potential for cardiotoxicity”) is 1. In addition, in data set [3] (setting [5]), the Cmax was 0.07 µM. Further, the “Cmax” value in data set [3] (setting [6]) was 27.8 ng/mL.

Turning to `COc1cc(Nc2c(C#N)cnc3cc(OCCCN4CCN(C)CC4)c(OC)cc23)c(Cl)cc1Cl` [Bosutinib], in data set [1], the “Cytochrome c release 1XCmax” value came to 0, the “Cytochrome c release 2.5XCmax” value is 0, the “Cytochrome c release 5XCmax” value is recorded as 0 and the “Cytochrome c release 10XCmax” value amounted to 0. In data set [1], the “Cytochrome c release 20XCmax” value was determined as 0, the “Cytochrome c release 30XCmax” value was 0, the “Cytochrome c release 50XCmax” value is 0 and the “Cytochrome c release 100XCmax” value came out at 0. The “Potential for cardiotoxicity” value in data set [2] is 0. Besides, the “Cmax” value in data set [3] (setting [6]) is 200 ng/mL.

As to `O=C(c1ccc(F)c(F)c1Nc1ccc(I)cc1F)N1CC(O)([C@@H]2CCCCN2)C1` [Cobimetinib], in data set [1], the “Cytochrome c release 1XCmax” value was determined as 0, the “Cytochrome c release 2.5XCmax” value was 0, the “Cytochrome c release 5XCmax” value was 0 and the “Cytochrome c release 10XCmax” value was determined as 0. In addition, in data set [1], the “Cytochrome c release 20XCmax” value was found to be 0, the “Cytochrome c release 30XCmax” value amounted to 0, the “Cytochrome c release 50XCmax” value is listed as 0 and the “Cytochrome c release 100XCmax” value is 0. Moreover, the Cmax in data set [3] (setting [7]) is 0.51 µM. The Labeling for cardiotoxicity result in data set [4] (BBW: black box warning, W&P: Warnings and Precautions) is “W&P: Cardiomyopathy”. Besides, the “Potential for cardiotoxicity” value in data set [4] is listed as 1.

With `COc1cc2nccc(Oc3ccc(NC(=O)NC4CC4)c(Cl)c3)c2cc1C(N)=O` [Lenvatinib], in data set [1], the “Cytochrome c release 1XCmax” value is 0, the “Cytochrome c release 2.5XCmax” value came out at 0, the “Cytochrome c release 5XCmax” value is 0 and the “Cytochrome c release 10XCmax” value stood at 0. Moreover, in data set [1], the “Cytochrome c release 20XCmax” value came to 0, the “Cytochrome c release 30XCmax” value came out at 0, the “Cytochrome c release 50XCmax” value was 0 and the “Cytochrome c release 100XCmax” value turned out to be 0. Moreover, in data set [3] (setting [5]), the peak concentration (Cmax) is 0.68 µM. In data set [3] (setting [8]), the “Cmax (ng or µg/ml)” value was 0.291 µg/mL. Besides, in data set [3] (setting [7]), the Cmax is 0.68 µM.

For `COC(=O)c1ccc2c(c1)NC(=O)/C2=C(\Nc1ccc(N(C)C(=O)CN2CCN(C)CC2)cc1)c1ccccc1` [Nintedanib], in data set [1], the “Cytochrome c release 1XCmax” value is listed as 0, the “Cytochrome c release 2.5XCmax” value is listed as 0, the “Cytochrome c release 5XCmax” value worked out at 0 and the “Cytochrome c release 10XCmax” value stood at 0. Further, in data set [1], the “Cytochrome c release 20XCmax” value is 0, the “Cytochrome c release 30XCmax” value came to 0, the “Cytochrome c release 50XCmax” value is 0 and the “Cytochrome c release 100XCmax” value came out at 0. The Cmax in data set [3] (setting [5]) is 0.06 µM. In addition, the “Cmax (ng or µg/ml)” value in data set [3] (setting [8]) was 0.0349 µg/mL. The Cmax in data set [3] (setting [7]) was 0.06 µM. In data set [4], the “Potential for cardiotoxicity” value was 0.

As for `COc1cc2c(Nc3ccc(Br)cc3F)ncnc2cc1OCC1CCN(C)CC1` [Vandetanib], in data set [1], the “Cytochrome c release 1XCmax” value is listed as 0, the “Cytochrome c release 2.5XCmax” value was 0, the “Cytochrome c release 5XCmax” value came to 0 and the “Cytochrome c release 10XCmax” value is 0. Also, in data set [1], the “Cytochrome c release 20XCmax” value was 0, the “Cytochrome c release 30XCmax” value amounted to 0, the “Cytochrome c release 50XCmax” value was 0 and the “Cytochrome c release 100XCmax” value is listed as 18.47±3.80 percentage of the positive control group. Moreover, in data set [1] (rat, 30 min, pH 7.4), the “lowest concentration causing cytochrome c release” value came out at 100 fold Cmax. In data set [2], the Labeling for cardiotoxicity result is given as “BBW” and the “Potential for cardiotoxicity” value is on record as 1. Further, in data set [3] (setting [5]), the Cmax was 1.8 µM. Besides, the Cmax in data set [3] (setting [9]) is 1.8 µM. For the same compound, the highest concentration (Cmax) in data set [3] (setting [6]) is 857 ng/mL.

Turning to `CCCS(=O)(=O)Nc1ccc(F)c(C(=O)c2c[nH]c3ncc(-c4ccc(Cl)cc4)cc23)c1F` [Vemurafenib], in data set [1], the “Cytochrome c release 1XCmax” value amounted to 0, the “Cytochrome c release 2.5XCmax” value amounted to 0, the “Cytochrome c release 5XCmax” value amounted to 0 and the “Cytochrome c release 10XCmax” value is 0. Also, in data set [1], the “Cytochrome c release 20XCmax” value is recorded as 0, the “Cytochrome c release 30XCmax” value is 0, the “Cytochrome c release 50XCmax” value is 0 and the “Cytochrome c release 100XCmax” value was found to be 0. For the same compound, in data set [2], the Labeling for cardiotoxicity entry is “W&P: QT Prolongation” and the “Potential for cardiotoxicity” value is listed as 1. The maximum concentration (Cmax) in data set [3] (setting [5]) is 0.13 µM.

Turning to `Cc1nc(Nc2ncc(C(=O)Nc3c(C)cccc3Cl)s2)cc(N2CCN(CCO)CC2)n1` [dasatinib (free base)], in data set [1], the “Cytochrome c release 1XCmax” value is reported as 0, the “Cytochrome c release 2.5XCmax” value is 0, the “Cytochrome c release 5XCmax” value is listed as 0 and the “Cytochrome c release 10XCmax” value was found to be 0. Moreover, in data set [1], the “Cytochrome c release 20XCmax” value was 0, the “Cytochrome c release 30XCmax” value is on record as 0, the “Cytochrome c release 50XCmax” value is 0 and the “Cytochrome c release 100XCmax” value is on record as 0. Moreover, in data set [2], the Labeling for cardiotoxicity entry was “W&P: Cardiovascular events;QT Interval Prolongation” and the “Potential for cardiotoxicity” value was 1. The peak concentration (Cmax) in data set [3] (setting [9]) was 0.18 µM. Further, the “Cmax” value in data set [3] (setting [6]) is 85.8 ng/mL.

Consider `N#CC[C@H](C1CCCC1)n1cc(-c2ncnc3[nH]ccc23)cn1` [ruxolitinib phosphate], for which, in data set [1], the “Cytochrome c release 1XCmax” value came out at 0, the “Cytochrome c release 2.5XCmax” value worked out at 0, the “Cytochrome c release 5XCmax” value is 0 and the “Cytochrome c release 10XCmax” value worked out at 0. For the same compound, in data set [1], the “Cytochrome c release 20XCmax” value is recorded as 0, the “Cytochrome c release 30XCmax” value was found to be 0, the “Cytochrome c release 50XCmax” value is listed as 13.84±2.24 percentage of the positive control group and the “Cytochrome c release 100XCmax” value was 8.09±1.58 percentage of the positive control group. The “Potential for cardiotoxicity” value in data set [2] was 0. For the same compound, in data set [3] (setting [9]), the highest concentration (Cmax) is 1.2 µM. Also, the “Cmax” value in data set [3] (setting [6]) was 368 ng/mL.

As to `CCN(CC)CCNC(=O)c1c(C)[nH]c(/C=C2\C(=O)Nc3ccc(F)cc32)c1C` [sunitinib malate], in data set [1], the “Cytochrome c release 1XCmax” value turned out to be 0, the “Cytochrome c release 2.5XCmax” value amounted to 0, the “Cytochrome c release 5XCmax” value is listed as 0 and the “Cytochrome c release 10XCmax” value is 0. Besides, in data set [1], the “Cytochrome c release 20XCmax” value came to 0, the “Cytochrome c release 30XCmax” value stood at 0, the “Cytochrome c release 50XCmax” value stood at 0 and the “Cytochrome c release 100XCmax” value is on record as 0. Besides, in data set [2], the Labeling for cardiotoxicity entry was “W&P: Cardiovascular events;QT Interval Prolongation and Torsade de Pointes”; the “Potential for cardiotoxicity” value was 1. Moreover, the highest concentration (Cmax) in data set [3] (setting [9]) is 0.12 µM. Besides, in data set [3] (setting [6]), the “Cmax” value is 61.9 ng/mL.
